Experimental data as given in patent US10682323B2, “Therapeutic agent for glaucoma” (TOA EIYO LTD., priority 2016, dated 2020).

Key:
[1] = as disclosed in Patent Literature 1 (WO 2015/095515 A); cited from earlier work
human sGC = target: T1, human sGC (Homo sapiens, UniProt Q02153); test: Measurement of sGC activating effect in CHO-K1 cells stably expressing human sGC and mouse CNGA2; format: cell-based; settings: CHO-K1 cells expressing human sGC and mouse CNGA2, Fura2 calcium readout, 10 μmol/L ODQ in assay buffer
T1 construct: expressed in transfected cells; host or cells: CHO-K1 cells (Chinese hamster ovary), stably co-expressing mouse CNGA2 as the calcium read-out channel
T1 sequence (Q02153 1-619): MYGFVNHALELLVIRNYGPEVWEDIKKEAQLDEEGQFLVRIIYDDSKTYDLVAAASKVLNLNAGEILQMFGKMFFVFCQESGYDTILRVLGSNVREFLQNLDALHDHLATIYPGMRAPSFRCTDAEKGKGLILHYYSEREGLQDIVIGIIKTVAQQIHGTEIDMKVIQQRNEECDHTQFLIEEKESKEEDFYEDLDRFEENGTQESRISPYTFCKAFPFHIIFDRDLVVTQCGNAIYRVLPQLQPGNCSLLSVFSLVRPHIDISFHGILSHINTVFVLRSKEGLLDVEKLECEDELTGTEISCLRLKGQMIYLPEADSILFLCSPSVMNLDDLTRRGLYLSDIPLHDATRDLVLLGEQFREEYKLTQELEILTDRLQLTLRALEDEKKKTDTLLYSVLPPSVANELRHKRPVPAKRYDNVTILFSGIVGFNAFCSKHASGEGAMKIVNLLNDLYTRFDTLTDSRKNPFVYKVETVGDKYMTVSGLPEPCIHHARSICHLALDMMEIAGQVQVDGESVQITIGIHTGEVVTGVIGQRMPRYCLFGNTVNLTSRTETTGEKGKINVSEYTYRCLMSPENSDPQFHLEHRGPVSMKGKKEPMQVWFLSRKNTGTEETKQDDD
T1 sequence (Q02108 1-690 partner): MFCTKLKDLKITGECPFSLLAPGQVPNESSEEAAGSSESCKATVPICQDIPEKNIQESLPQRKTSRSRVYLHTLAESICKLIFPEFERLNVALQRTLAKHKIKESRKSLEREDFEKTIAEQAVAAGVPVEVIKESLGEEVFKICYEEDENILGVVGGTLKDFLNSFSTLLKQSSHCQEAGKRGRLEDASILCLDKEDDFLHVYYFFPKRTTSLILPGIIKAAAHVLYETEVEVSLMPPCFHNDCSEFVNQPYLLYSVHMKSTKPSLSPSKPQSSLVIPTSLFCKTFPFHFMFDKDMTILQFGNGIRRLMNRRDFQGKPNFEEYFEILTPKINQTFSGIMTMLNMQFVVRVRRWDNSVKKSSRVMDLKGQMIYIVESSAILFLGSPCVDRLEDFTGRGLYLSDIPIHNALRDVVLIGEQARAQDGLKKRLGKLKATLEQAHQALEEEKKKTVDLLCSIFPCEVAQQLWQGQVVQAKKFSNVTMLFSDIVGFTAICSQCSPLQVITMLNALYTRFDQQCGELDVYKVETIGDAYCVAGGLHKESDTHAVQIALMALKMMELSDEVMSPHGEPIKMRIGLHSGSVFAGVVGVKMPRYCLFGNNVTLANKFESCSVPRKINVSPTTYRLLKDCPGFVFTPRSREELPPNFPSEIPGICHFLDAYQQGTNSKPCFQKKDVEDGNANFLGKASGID
Experimental: Chinese Hamster ovary cells (CHO-K1 cells) modified for stably expressing human sGC α subunit and β subunit, and a mouse cyclic nucleotide gated channel (CNGA2) were used in the test.
The CHO-K1 cells stably expressing human sGC and mouse CNGA2 were cultured at 37° C. in a F-12 medium supplemented with 10% (v/v) fetal bovine serum (FBS), penicillin (100 U/mL), streptomycin (100 μg/mL), G418 (250 μg/mL), and Zeocin (250 μg/mL). The cells were suspended in a culture medium, seeded in a 96 well plate, and cultured at 37° C. for 24 hours. The cells were washed with an assay buffer 1 (140 mmol/L of sodium chloride, 5 mmol/L of potassium chloride, 0.5 mmol/L of magnesium chloride, 0.01 mmol/L of calcium chloride, 10 mmol/L of glucose, 0.4 mmol/L of magnesium sulfate, 10 mmol/L of 4-(2-hydroxyethyl)piperazine-1-yl ethanesulfonic acid, 125 μmol/L of sulfinpyrazone, pH 7.4), and then an indicator solution in which Fura2-AM as a fluorescent Ca2+ indicator is dissolved in assay buffer 1 at a concentration of 5 μmol/L was added thereto, and cultured at 37° C. for 60 minutes. The culture medium was removed, the cells were washed with assay buffer 1, the test compound solution was added thereto, and cultured at room temperature for 10 minutes. The plate was mounted on a fluorescence microplate reader (FlexStation II, available from Molecular Devices) with setting of excitation wavelengths of 340 and 380 nm and a detection wavelength of 510 nm, an intracellular calcium concentration was measured as a fluorescent intensity ratio obtained from each excitation wavelength.
In this test, the solution of the test compound was prepared by dissolving each test compound in DMSO at a concentration of 10 mmol/L, and then diluting the solution with assay buffer 2 (140 mmol/L of sodium chloride, 5 mmol/L of potassium chloride, 0.5 mmol/L of magnesium chloride, 1 mmol/L of calcium chloride, 10 mmol/L of glucose, 0.4 mmol/L of magnesium sulfate, 10 mmol/L of 4-(2-hydroxyethyl)piperazine-1-yl ethanesulfonic acid, 125 μmol/L of sulfinpyrazone, 100 μmol/L of isobutylmethylxanthine, 10 μmol/L of 1H-[1,2,4]-oxadiazole [4,3-a]quinoxaline-1-on (hereinafter, referred to as ODQ), pH 7.4), in order to adjust the concentration of 10 μmol/L for testing. As a control solution, a DMSO diluted solution was used, instead of the test compound solution.
The activity of the test compound was calculated as an increase rate (%) of the sGC activity in the test compound solution relative to the sGC activity in the control solution, by dividing a fluorescent intensity ratio in adding the test compound by a fluorescent intensity ratio of the control solution, and subtracting the sGC activity in the control solution (100%) therefrom. An EC50 value was calculated from the activity of the test compound at concentrations of 0.0001, 0.001, 0.003, 0.01, 0.03, 0.1, 1, and 10 μmol/L, using a 4 parameter losgistic model from Assay Explorer (available from Dssault Systèmes BIOVIA).

[2] = Determination of Log D value (flask shaking method); format: physicochemical; settings: pH 6.8; partition between n-octanol and second solution for the disintegration test (16th revised Japanese Pharmacopoeia), room temperature
Experimental: More specifically, the Log D is more preferably 1.6 or more and 2.3 or less, still more preferably 1.8 or more and 2.2 or less, and particularly preferably 1.8 or more and 2.1 or less. Here, the Log D value in the present invention is a compound partition coefficient between n-octanol and a second solution of a disintegration test of the 16th revised Japanese Pharmacopoeia.
The Log D value was determined using a flask shaking method, where a test compound partition coefficient between n-octanol and the second solution for the disintegration test defined in the 16th revised Japanese Pharmacopoeia was calculated. Specifically, in a microtube containing 2 mg of the test compound, n-octanol (0.25 mL) and the second solution for the disintegration test (0.25 mL) were mixed. The tube was shaken in a multi shaker at room temperature for 60 minutes, and allowed to stand until the two phases were completely separated. In the microtube, 10 μL of an n-octanol phase was diluted with 190 μL of 85% methanol and mixed, thereby obtaining an organic phase test solution. 100 μL of the second solution phase for the disintegration test was diluted with 100 μL of 50% methanol, and mixed, thereby obtaining an aqueous phase test solution. The organic phase test solution and the aqueous phase test solution were filtered, respectively, and the concentration of the test compound in these test solutions were measured, using high performance liquid chromatography. Then, from the measured concentration and dilution rate, the Log D was calculated.
That is, the Log D of the present specification is represented by the following equation: Log D=Log10([concentration of test compound in organic phase test solution]/[concentration of test compound in aqueous phase test solution])+1 [Equation 1]
The second solution for the disintegration test herein refers to, as defined in the 16th revised Japanese Pharmacopoeia, a liquid obtained by adding to 250 mL of a 0.2 mol/L potassium dihydrogenphosphate reagent, 118 mL of a 0.2 mol/L sodium hydroxide reagent, and water for adjusting to 1000 mL volume.

Compound	intraocular pressure lowering action [1]	EC50 (human sGC) [nM]	logD [2]
O=C(O)CCCCN(CCc1ccccc1OCc1ccc(CCc2ccccc2)cc1)Cc1ccc(C(=O)O)cc1 [Cinaciguat]	low intraocular pressure lowering action	–	–
O=C(O)CCCCN(CCc1ccccc1OC[C@H]1CCc2ccccc2C1)C1CCCc2cc(C(=O)O)ccc21 (stereo partly drawn) [Compound No. 17, 5-[N-(4-carboxybutyl)-N-[2-[2-((2S)-1,2,3,4-tetrahydronaphthalene-2-ylmethoxy)phenyl]ethyl]amino]-5,6,7,8-tetrahydronaphthalene-2-carboxylic acid]	–	11	2
O=C(O)CCCCN(CCc1ccccc1OCc1ccc2c(c1)CCCC2)C1CCOc2cc(C(=O)O)ccc21 (stereo not shown) [Compound No. 18, 4-[N-(4-carboxybutyl)-N-[2-[2-(1,2,3,4-tetrahydronaphthalene-6-ylmethoxy)phenyl]ethyl]amino]-chromane-7-carboxylic acid]	–	2.9	2.14
O=C(O)CCCCN(CCc1ccccc1OCc1cc2c(s1)CCCC2)C1CCCc2cc(C(=O)O)ccc21 (stereo not shown) [Compound No. 19, 5-[N-(4-carboxybutyl)-N-[2-[2-(4,5,6,7-tetrahydrobenzo[b]thiophene-2-ylmethoxy)phenyl]ethyl]amino]-5,6,7,8-tetrahydronaphthalene-2-carboxylic acid]	–	33.5	1.74
O=C(O)CCCCN(CCc1ccccc1OCc1ccc2c(c1)CCCC2)C1CCCc2cc(C(=O)O)ccc21 (stereo not shown) [Compound No. 20, 5-[N-(4-carboxybutyl)-N-[2-[2-(1,2,3,4-tetrahydronaphthalene-6-ylmethoxy)phenyl]ethyl]amino]-5,6,7,8-tetrahydronaphthalene-2-carboxylic acid]	–	3.96	1.87
O=C(O)CCCCN(CCc1ccccc1OCc1ccc(C#CC2CC2)cc1)C1CCCc2cc(C(=O)O)ccc21 (stereo not shown) [Compound No. 21, 5-[N-(4-carboxybutyl)-N-[2-[2-[4-(2-cyclopropylethynyl)benzyloxy]phenyl]ethyl]amino]-5,6,7,8-tetrahydronaphthalene-2-carboxylic acid]	–	15.9	2.06
O=C(O)CCCCN(CCc1ccccc1OCc1ccc(COc2ccccc2)cc1)C1CCCc2cc(C(=O)O)ccc21 (stereo not shown) [Compound No. 22, 5-[N-(4-carboxybutyl)-N-[2-[2-(4-phenoxymethylbenzyloxy)phenyl]ethyl]amino]-5,6,7,8-tetrahydronaphthalene-2-carboxylic acid]	–	8.86	2.18
O=C(O)CCCCN(Cc1ccc(C(=O)O)cc1)C[C@H](OCc1ccc(Oc2ccccc2)cc1)c1cccc(Cl)c1 [Compound No. 23, (−)-4-([N-(4-carboxybutyl)-N-[(2R)-2-(3-chlorophenyl)-2-[4-(phenyloxy)benzyloxy]ethyl]amino]methyl)benzoic acid]	–	2.47	2.35
O=C(O)CCCCN(CCc1ccccc1OCc1ccc(OCc2ccccc2)cc1)C1CCOc2cc(C(=O)O)ccc21 (stereo not shown) [Compound No. 24, 4-[N-[2-[2-(4-benzyloxybenzyloxy)phenyl]ethyl]-N-(4-carboxybutyl)amino]-chromane-7-carboxylic acid]	–	8.73	2.4
O=C(O)CCCCN(CCc1ccccc1OCc1ccc(OCc2ccccc2)cc1)C1CCCc2cc(C(=O)O)ccc21 (stereo not shown) [Compound No. 26, 5-[N-[2-[2-(4-benzyloxybenzyloxy)phenyl]ethyl]amino-N-(4-carboxybutyl)]-5,6,7,8-tetrahydronaphthalene-2-carboxylic acid]	–	15.6	2.24
